Activity calls are given as the source filed them.
Experiments:
BJ [1] = test: cytotoxicity toward BJ-TERT-LT-ST fibroblasts, dose response, cell-based, RAS-independent, luminescence (AID 1935); type: functional; settings: Homo sapiens;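 further: BJ fibroblasts immortalized with TERT plus LT and ST oncogenes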
BJ [2] = test: cells; type: functional, cell-based; settings: Homo sapiens
[3] = cytotoxicity toward DRD oncogenic fibroblasts, dose response, cell-based, non-viral oncogenic, luminescence (AID 1934); type: functional; settings: Homo sapiens
BJ [4] = test: cytotoxicity toward Ras-transformed BJeLR fibroblasts, dose response, cell-based, alamar blue fluorescence, cherrypicked samples (AID 2631); type: functional; settings: Homo sapiens;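 further: confirmatory dose-response assay in RAS-dependent BJ fibroblasts engineered with TERT, LT and ST, with cytotoxicity read by fluorescence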
BJ [5] = test: cytotoxicity toward BJ-TERT fibroblasts, dose response, cell-based, RAS-independent, luminescence (AID 1933); type: functional; settings: Homo sapiens
[6] = molecular target: T1, Sentrin-specific protease 6 (Homo sapiens, UniProt Q9GZR1); type: functional
T1 sequence (Q9GZR1 whole entry): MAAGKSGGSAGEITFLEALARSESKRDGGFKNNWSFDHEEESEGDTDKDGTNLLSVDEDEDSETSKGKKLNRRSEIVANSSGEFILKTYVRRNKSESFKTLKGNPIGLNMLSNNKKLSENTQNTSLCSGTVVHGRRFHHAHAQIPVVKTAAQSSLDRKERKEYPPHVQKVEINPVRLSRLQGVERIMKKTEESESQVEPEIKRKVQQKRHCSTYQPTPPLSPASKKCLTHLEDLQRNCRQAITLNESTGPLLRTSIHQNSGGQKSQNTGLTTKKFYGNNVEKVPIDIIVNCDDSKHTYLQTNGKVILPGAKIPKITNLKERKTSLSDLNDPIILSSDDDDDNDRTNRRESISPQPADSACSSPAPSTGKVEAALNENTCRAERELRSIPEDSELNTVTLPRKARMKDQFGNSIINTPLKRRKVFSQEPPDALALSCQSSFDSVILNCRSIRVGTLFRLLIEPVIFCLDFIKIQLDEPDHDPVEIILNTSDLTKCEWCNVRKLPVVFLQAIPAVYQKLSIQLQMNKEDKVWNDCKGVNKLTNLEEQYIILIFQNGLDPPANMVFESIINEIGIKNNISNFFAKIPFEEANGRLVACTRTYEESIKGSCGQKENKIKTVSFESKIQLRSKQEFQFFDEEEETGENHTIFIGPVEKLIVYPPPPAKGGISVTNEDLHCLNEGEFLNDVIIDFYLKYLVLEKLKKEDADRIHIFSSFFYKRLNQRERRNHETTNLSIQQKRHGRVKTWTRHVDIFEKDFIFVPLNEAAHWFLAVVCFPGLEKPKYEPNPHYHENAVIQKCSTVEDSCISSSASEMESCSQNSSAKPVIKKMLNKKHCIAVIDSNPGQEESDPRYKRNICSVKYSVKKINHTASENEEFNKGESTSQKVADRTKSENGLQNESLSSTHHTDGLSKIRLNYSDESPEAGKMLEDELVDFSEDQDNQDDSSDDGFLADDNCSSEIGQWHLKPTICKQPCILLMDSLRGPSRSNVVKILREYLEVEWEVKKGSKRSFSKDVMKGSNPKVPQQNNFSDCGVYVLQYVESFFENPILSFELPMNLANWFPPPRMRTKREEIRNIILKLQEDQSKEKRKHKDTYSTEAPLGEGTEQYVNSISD

[7] = molecular target: T2, Sentrin-specific protease 8 (Homo sapiens, UniProt Q96LD8); type: functional;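 further: luminescence read-out of SENP8 inhibition, dose-response confirmation following an ultra-high-throughput screen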
T2 sequence (Q96LD8 whole entry): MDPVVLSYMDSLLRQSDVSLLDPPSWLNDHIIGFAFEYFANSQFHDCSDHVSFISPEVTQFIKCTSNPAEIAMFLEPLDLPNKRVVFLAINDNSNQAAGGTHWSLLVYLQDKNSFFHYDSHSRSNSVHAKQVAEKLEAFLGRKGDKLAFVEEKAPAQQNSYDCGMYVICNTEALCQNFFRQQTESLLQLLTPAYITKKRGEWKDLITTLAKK

Caspase-3 [8] = molecular target: T3, Caspase-3 (Homo sapiens, UniProt P42574); type: functional
T3 sequence (P42574 whole entry): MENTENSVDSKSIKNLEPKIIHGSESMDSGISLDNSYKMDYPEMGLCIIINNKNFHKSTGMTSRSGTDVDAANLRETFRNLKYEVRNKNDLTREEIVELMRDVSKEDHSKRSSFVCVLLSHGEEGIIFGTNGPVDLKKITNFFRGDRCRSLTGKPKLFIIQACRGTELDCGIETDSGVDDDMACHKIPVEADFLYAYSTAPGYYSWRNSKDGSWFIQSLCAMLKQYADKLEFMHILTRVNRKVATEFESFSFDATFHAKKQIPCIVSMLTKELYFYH

[9] = molecular target: T4, Sentrin-specific protease 7 (Homo sapiens, UniProt Q9BQF6); type: functional;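 further: Luminescence-based dose-response confirmation of ultra-high-throughput screening hits, measuring inhibition of SENP7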
T4 sequence (Q9BQF6 whole entry): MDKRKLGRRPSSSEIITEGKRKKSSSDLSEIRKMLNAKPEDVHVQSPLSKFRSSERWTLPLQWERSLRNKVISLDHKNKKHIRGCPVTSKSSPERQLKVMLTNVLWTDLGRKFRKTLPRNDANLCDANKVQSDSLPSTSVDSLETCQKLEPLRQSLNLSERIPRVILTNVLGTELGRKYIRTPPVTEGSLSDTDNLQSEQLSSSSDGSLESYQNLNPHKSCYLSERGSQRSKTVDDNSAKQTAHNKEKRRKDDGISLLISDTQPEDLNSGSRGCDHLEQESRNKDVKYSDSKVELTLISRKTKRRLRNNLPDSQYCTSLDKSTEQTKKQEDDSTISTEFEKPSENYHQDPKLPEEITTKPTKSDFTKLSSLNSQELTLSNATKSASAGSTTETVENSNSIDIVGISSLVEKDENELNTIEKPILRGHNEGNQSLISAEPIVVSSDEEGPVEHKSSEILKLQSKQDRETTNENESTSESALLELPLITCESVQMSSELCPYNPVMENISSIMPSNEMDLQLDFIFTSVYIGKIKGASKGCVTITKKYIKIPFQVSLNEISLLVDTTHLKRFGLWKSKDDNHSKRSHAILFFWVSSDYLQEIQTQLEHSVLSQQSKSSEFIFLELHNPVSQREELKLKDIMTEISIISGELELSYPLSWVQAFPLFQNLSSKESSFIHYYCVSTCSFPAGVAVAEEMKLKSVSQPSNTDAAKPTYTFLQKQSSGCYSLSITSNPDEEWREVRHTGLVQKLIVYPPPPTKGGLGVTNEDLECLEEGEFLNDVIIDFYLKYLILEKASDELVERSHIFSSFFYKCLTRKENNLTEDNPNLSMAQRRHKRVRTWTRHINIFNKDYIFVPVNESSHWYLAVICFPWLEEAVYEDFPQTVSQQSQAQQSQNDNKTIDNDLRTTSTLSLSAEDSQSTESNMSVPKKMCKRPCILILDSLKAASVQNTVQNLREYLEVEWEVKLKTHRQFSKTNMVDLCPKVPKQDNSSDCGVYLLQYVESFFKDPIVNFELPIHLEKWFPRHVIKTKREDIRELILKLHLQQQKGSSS

HEK293 [10] = test: optical interference in Abeta FP readout, dose response, artefact control for IDE activator project, biochemical, fluorescence polarization (AID 588442); type: functional, cell-based; settings: Homo sapiens
Insulin-degrading enzyme [11] = molecular target: T5, Insulin-degrading enzyme (Homo sapiens, UniProt P14735); test: activators of recombinant IDE enzyme, dose response, counter-screen for IDE activator project, biochemical, fluorescence polarization (AID 588681)
T5 sequence (P14735 whole entry): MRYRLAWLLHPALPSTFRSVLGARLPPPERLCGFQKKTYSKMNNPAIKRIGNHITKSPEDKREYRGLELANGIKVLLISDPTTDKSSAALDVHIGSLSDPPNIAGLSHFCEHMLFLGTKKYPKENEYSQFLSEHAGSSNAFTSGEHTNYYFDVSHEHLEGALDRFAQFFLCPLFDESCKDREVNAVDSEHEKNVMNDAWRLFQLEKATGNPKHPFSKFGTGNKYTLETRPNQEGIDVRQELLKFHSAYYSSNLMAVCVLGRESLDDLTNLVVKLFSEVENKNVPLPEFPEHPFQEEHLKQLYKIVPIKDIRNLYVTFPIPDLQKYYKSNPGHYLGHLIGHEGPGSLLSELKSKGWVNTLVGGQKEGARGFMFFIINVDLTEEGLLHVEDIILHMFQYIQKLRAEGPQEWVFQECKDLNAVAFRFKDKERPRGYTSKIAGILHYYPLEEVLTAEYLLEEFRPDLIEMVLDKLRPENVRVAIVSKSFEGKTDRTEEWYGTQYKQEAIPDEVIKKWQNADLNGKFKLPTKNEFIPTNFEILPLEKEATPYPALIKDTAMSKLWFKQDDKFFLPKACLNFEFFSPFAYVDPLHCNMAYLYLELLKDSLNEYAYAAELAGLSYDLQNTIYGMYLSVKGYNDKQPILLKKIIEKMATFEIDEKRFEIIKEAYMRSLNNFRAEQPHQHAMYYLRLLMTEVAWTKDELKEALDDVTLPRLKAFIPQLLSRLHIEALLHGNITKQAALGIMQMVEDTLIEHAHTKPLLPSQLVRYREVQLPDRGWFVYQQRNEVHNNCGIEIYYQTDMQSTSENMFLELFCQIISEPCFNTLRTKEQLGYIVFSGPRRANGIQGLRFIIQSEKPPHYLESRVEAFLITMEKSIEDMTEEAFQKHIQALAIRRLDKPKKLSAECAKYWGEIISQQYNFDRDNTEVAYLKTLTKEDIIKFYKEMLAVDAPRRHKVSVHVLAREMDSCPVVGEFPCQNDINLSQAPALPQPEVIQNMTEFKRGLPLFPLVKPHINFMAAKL

HEK293 [12] = test: HEK cell cytotoxicity by LDH release, dose response, cytotoxicity control for IDE activator project, fluorescence, HEK cells (AID 588440); type: functional, cell-based; settings: Homo sapiens;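 further: cytotoxicity by LDH release measuring loss of membrane integrity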
Insulin-degrading enzyme [13] = molecular target: T5, Insulin-degrading enzyme; test: activators of endogenous IDE in HEK cells, dose response, cell-based, fluorescence polarization (AID 588439); type: functional
[14] = system: Streptococcus sp. 'group A'; test: growth inhibition of control SK(-) GAS strain, dose response, counter-screen for streptokinase expression inhibitor project, luminescence, kanamycin, BacTiterGlo, confirmation (AID 1900); type: functional, organism-based
[15] = molecular target: T2, Sentrin-specific protease 8; test: SENP8 protease inhibitors, SAR follow-up, biochemical, luminescence (AID 504501); type: functional
Streptococcus = test: Group A Streptococcus viability loss, dose response, counter-screen for streptokinase expression inhibitor project, luminescence, BacTiterGlo (AID 1915); type: functional, organism-based;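 further: potency for reduction of bacterial viability or growth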
[16] = Luminescence Cell-Based Dose Response HTS to Identify Inhibitors of 5'UTR Stem-Loop Driven Prion Protein mRNA Translation in H4 Neuroglioblastoma Cells. [Related pubchem assays: 1827 (Project Summary), 1813 (Primary HTS)]; type: functional
[17] = inhibitors of firefly luciferase expression or activity, dose response, H4 neuroglioma cells, luminescence (AID 1990); type: functional, cell-based
Nonstructural protein 1 = Nonstructural protein 1 (Influenza A virus, UniProt Q194T2); type: functional, Influenza A virus (A/California/07/2009(H1N1))
Sequence of Nonstructural protein 1 (Q194T2 whole entry): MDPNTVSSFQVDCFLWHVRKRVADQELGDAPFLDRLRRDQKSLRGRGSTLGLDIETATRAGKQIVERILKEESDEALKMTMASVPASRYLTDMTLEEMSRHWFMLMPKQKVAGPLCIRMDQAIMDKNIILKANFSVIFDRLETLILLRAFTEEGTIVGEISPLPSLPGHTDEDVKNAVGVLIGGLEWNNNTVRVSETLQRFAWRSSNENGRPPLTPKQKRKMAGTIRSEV

Caspase-3 [18] = molecular target: T3, Caspase-3; test: SAR Analysis of small molecule inhibitors of Sentrin-specific proteases (SENPs) using a Caspase-3 Selectivity assay. [Related pubchem assays (depositor defined):AID2540, AID2599, AID434973, AID489001]; type: functional
[19] = molecular target: T1, Sentrin-specific protease 6; test: SAR Analysis of small molecule inhibitors of Sentrin-specific protease 6 (SENP6) using a Luminescent assay. [Related pubchem assays (depositor defined):AID2582, AID2599]; type: functional
[20] = molecular target: T4, Sentrin-specific protease 7; test: SENP7 protease inhibitors, SAR follow-up, biochemical, luminescence (AID 504497); type: functional
HEK293 [21] = test: inhibitors of LMP1-driven NF-kB reporter, dose response, cell-based, HEK293, luciferase, cherry-pick (AID 588343); type: functional; settings: Homo sapiens
[22] = inhibitors of SNCA 5'UTR-driven reporter translation, confirmation, H4 neuroglioma cells, luminescence (AID 1988); type: functional, cell-based

COc1ccc(-c2coc3cc4oc(=O)c5ccccc5c4cc23)cc1F
EC50 (BJ [1]): 0.66 µM (inconclusive)
EC50 (BJ [2]): 109 µM (inconclusive)
EC50 [3]: 0.923 µM (active)
EC50 (BJ [4]): 0.618 µM (inconclusive)
EC50 (BJ [5]): 0.669 µM (inconclusive)

Cn1cc(/C=C/C(=O)c2ccccc2)c2ccccc21
IC50 [6]: 7.58 µM (active)
IC50 [7]: 64.9 µM (active)
IC50 (Caspase-3 [8]): 17.7 µM (active)
IC50 [9]: 3.24 µM (active)

COCCN=C(S)N(C)C1(c2ccccc2Cl)CCCCC1=O (stereo not given)
EC50 (HEK293 [10]): > 55.9 µM (inactive)
EC50 (Insulin-degrading enzyme [11]): > 54.7 µM (inactive)
IC50 (HEK293 [12]): > 89.2 µM (inactive)
EC50 (Insulin-degrading enzyme [13]): > 54.7 µM (inactive)

Cc1ccnc(Nc2nc(-c3ccc(F)cc3)cs2)c1
IC50 [6]: 38.4 µM (active)
IC50 [7]: 9.93 µM (active)
IC50 (Caspase-3 [8]): 44.4 µM (active)
IC50 [9]: 6.9 µM (active)

COc1c(C(=O)Nc2ccc3[nH]c(O)nc3c2)cc2ccccc2c1Br
EC50 (HEK293 [10]): > 54.7 µM (inactive)
EC50 (Insulin-degrading enzyme [11]): > 54.7 µM (inactive)
IC50 (HEK293 [12]): 34.5 µM (inactive)
EC50 (Insulin-degrading enzyme [13]): > 54.7 µM (inactive)

O=[N+]([O-])c1ccc(O)c(/C=N/Nc2ncnc3c2cnn3-c2ccccc2)c1
IC50 [6]: 11.3 µM (active)
EC50 [14]: 1.02 µM (active)
IC50 [15]: 1.49 µM (active)
EC50 (Streptococcus): 1.01 µM (active)
EC50 [16]: 23.6 µM (active)
EC50 [17]: 11.4 µM (active)
IC50 (Nonstructural protein 1): > 100 µM (active)
IC50 (Caspase-3 [18]): 4.42 µM (active)
IC50 [19]: 1.54 µM (active)
IC50 [20]: 1.4 µM (active)
AC50 (HEK293 [21]): 18.5 µM (active)
IC50 [7]: 2.44 µM (active)
IC50 (Caspase-3 [8]): > 100 µM (inactive)
IC50 [9]: 1.94 µM (active)
EC50 [22]: 5.1 µM (inconclusive)

CCOc1cc(C(=S)N2CCCC2)ccc1OCc1ccccc1F
IC50 [15]: > 99 µM (inactive)
IC50 (Caspase-3 [18]): > 99 µM (inactive)
IC50 [19]: > 99 µM (inactive)
IC50 [20]: > 99 µM (inactive)
